From publication PMC10882719 (Frontiers in Neuroscience, 2024)
Like-named read-outs stand apart in the source and are kept apart here.

Legend:
Type in all cases: cell-based
168 GPCRs [1] = target: T1, 168 GPCRs (Homo sapiens, UniProt Q8TCW9); conditions: PROKR1
T1 construct: host or cells: PathHunter cell lines

168 GPCRs [2] = target: T2, 168 GPCRs (Homo sapiens, UniProt Q9GZQ6); conditions: NPFFR1
T2 construct: host or cells: PathHunter cell lines

168 GPCRs [3] = target: T3, 168 GPCRs (Homo sapiens, UniProt Q9Y5Y4)
T3 construct: host or cells: PathHunter cell lines
T3 sequence (Q9Y5Y4 1-395): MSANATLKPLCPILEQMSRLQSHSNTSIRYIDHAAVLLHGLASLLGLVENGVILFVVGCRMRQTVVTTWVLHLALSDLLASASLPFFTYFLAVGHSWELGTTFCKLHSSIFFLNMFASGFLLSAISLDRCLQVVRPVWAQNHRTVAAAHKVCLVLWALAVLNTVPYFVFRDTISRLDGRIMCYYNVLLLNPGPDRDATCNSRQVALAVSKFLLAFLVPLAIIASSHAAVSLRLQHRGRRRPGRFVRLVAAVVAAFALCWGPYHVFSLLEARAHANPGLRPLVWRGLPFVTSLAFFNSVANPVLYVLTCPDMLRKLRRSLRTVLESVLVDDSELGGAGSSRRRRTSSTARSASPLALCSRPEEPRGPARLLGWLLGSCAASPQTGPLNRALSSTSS

168 GPCRs [4] = target: T4, 168 GPCRs (Homo sapiens, UniProt P25101); conditions: EDNRA
T4 construct: host or cells: PathHunter cell lines
T4 sequence (P25101 21-427): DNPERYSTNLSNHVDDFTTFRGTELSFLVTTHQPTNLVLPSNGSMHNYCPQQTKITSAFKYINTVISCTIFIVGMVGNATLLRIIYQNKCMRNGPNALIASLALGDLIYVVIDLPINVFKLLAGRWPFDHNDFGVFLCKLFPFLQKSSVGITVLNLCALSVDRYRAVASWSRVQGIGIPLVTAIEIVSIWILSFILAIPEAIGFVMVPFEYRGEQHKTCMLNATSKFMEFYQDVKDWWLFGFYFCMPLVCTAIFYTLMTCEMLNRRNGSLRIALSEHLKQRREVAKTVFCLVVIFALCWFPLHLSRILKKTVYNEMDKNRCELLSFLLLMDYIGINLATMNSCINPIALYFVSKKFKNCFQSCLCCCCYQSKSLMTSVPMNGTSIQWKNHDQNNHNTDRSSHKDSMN

168 GPCRs [5] = target: T5, 168 GPCRs (Homo sapiens, UniProt Q15077); conditions: P2RY6
T5 construct: host or cells: PathHunter cell lines

168 GPCRs [6] = target: T6, 168 GPCRs (Homo sapiens, UniProt P30559); conditions: OXTR
T6 construct: host or cells: PathHunter cell lines
T6 sequence (P30559 1-389): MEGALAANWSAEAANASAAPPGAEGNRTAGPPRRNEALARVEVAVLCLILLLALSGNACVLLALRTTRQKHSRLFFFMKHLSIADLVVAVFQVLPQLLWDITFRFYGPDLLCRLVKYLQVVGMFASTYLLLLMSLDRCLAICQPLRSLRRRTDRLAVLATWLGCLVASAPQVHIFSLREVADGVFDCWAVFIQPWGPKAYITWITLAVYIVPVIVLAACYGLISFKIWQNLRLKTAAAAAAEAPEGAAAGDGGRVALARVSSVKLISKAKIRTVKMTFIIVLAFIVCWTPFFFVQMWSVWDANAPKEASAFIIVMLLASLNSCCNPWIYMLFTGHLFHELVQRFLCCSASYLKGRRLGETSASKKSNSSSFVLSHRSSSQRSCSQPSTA

168 GPCRs [7] = target: T7, 168 GPCRs (Homo sapiens, UniProt P18089); conditions: ADRA2B
T7 construct: host or cells: PathHunter cell lines
T7 sequence (P18089 1-450): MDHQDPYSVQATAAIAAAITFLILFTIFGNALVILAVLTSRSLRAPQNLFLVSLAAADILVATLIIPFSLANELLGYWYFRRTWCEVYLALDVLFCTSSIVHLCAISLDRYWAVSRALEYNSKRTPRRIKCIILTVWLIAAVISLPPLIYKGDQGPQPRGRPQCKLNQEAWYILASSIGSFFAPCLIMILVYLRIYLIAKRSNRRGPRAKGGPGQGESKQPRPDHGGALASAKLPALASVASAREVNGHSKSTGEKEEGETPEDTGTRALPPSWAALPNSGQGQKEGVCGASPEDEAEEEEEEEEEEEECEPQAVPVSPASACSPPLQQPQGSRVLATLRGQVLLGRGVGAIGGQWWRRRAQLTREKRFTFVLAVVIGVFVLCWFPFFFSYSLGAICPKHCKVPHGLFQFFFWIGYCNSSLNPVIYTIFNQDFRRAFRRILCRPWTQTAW

168 GPCRs [8] = target: T8, 168 GPCRs (Homo sapiens, UniProt O95136)
T8 construct: host or cells: PathHunter cell lines
T8 sequence (O95136 whole entry): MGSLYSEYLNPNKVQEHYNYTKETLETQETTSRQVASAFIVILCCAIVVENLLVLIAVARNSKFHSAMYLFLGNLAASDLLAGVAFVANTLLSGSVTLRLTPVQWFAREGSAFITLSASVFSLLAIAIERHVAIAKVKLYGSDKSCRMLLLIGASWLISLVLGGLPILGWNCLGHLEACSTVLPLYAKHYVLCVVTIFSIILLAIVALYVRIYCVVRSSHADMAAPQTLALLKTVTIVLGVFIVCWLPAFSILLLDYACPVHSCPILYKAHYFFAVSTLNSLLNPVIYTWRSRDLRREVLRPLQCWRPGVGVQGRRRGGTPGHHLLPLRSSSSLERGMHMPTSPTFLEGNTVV

T2 sequence (Q9GZQ6 whole entry): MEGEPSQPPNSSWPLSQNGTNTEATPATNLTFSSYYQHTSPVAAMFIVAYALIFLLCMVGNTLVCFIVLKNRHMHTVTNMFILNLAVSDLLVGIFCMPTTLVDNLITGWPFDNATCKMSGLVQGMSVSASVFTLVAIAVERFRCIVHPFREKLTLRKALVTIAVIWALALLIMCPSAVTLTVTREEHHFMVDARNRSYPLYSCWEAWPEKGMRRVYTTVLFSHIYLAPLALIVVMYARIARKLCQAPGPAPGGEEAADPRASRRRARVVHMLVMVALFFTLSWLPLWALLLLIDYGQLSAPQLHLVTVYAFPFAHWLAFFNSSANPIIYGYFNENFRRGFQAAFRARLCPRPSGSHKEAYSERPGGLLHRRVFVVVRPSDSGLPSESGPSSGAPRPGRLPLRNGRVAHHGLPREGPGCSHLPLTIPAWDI
T1 sequence (Q8TCW9 whole entry): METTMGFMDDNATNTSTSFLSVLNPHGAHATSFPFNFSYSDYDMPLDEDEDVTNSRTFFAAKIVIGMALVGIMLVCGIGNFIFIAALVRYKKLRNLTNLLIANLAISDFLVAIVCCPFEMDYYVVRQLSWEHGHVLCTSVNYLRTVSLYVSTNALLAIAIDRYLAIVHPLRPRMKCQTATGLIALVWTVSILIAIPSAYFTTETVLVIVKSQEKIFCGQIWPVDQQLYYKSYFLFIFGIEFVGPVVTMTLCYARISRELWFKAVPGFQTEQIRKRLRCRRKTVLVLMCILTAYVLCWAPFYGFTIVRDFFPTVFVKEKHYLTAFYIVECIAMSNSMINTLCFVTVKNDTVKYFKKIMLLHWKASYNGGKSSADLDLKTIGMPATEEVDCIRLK
T5 sequence (Q15077 whole entry): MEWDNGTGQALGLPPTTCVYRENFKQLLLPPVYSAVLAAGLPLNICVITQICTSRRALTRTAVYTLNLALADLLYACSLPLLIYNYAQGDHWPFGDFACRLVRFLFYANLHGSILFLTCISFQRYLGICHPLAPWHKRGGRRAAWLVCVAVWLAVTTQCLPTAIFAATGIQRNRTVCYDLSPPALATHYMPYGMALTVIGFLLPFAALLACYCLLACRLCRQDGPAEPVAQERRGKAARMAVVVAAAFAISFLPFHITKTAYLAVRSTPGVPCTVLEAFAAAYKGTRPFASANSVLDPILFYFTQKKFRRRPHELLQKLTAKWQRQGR

SMILES	% Agonist Activity (168 GPCRs [1]; Conc 1 uM) [%]	% Antagonist Activity (168 GPCRs [1]; Conc 1 uM) [%]	% Agonist Activity (168 GPCRs [1]; Conc 10 uM) [%]	% Antagonist Activity (168 GPCRs [1]; Conc 10 uM) [%]	% Agonist Activity (168 GPCRs [2]; Conc 1 uM) [%]	% Antagonist Activity (168 GPCRs [2]; Conc 1 uM) [%]	% Agonist Activity (168 GPCRs [2]; Conc 10 uM) [%]	% Antagonist Activity (168 GPCRs [2]; Conc 10 uM) [%]	% Agonist Activity (168 GPCRs [3]; CRTH2, 1 uM) [%]	% Antagonist Activity (168 GPCRs [3]; CRTH2, 1 uM) [%]	% Agonist Activity (168 GPCRs [3]; CRTH2, 10 uM) [%]	% Antagonist Activity (168 GPCRs [3]; CRTH2, 10 uM) [%]	% Agonist Activity (168 GPCRs [4]; 1 uM) [%]	% Antagonist Activity (168 GPCRs [4]; 1 uM) [%]	% Agonist Activity (168 GPCRs [4]; 10 uM) [%]	% Antagonist Activity (168 GPCRs [4]; 10 uM) [%]	% Agonist Activity (168 GPCRs [5]; Conc 1 uM) [%]	% Antagonist Activity (168 GPCRs [5]; Conc 1 uM) [%]	% Agonist Activity (168 GPCRs [5]; Conc 10 uM) [%]	% Antagonist Activity (168 GPCRs [5]; Conc 10 uM) [%]	further results
CNC(C)Cc1ccc2c(c1)OCO2 (stereo not shown) [MDMA, 3,4-Methylenedioxy methamphetamine, reference compound]	0.3	-8.7	0.7	8.5	-3.2	17.7	-5.5	20.8	-4.1	19.8	-3	17.2	-1.1	2.5	-1.9	4.6	4.9	2.5	4.6	1.2	% Agonist Activity (168 GPCRs [6]; Conc 1 uM): -0.2%; % Antagonist Activity (168 GPCRs [6]; Conc 1 uM): 3.7%; % Agonist Activity (168 GPCRs [6]; Conc 10 uM): 0.6%; % Antagonist Activity (168 GPCRs [6]; Conc 10 uM): 8.2%; % Agonist Activity (168 GPCRs [7]; 1 uM): 5.2%; % Antagonist Activity (168 GPCRs [7]; 1 uM): 12.8%; % Agonist Activity (168 GPCRs [7]; 10 uM): 1.3%; % Antagonist Activity (168 GPCRs [7]; 10 uM): 2.9%; % Agonist Activity (168 GPCRs [8]; EDG5, 1 uM): -1.1%; % Antagonist Activity (168 GPCRs [8]; EDG5, 1 uM): -0.5%; % Agonist Activity (168 GPCRs [8]; EDG5, 10 uM): -1.5%; % Antagonist Activity (168 GPCRs [8]; EDG5, 10 uM): 0.6%
CNC(C)C(=O)c1ccc2c(c1)OCO2 (stereo not shown) [methylone]	-1.3	8.7	-2.8	3.3	-4.6	32	-5.6	27.1	-5.7	9	-5	8.9	0.3	-2.4	1.4	-11.3	4.5	6.5	2.4	2.6	% Agonist Activity (168 GPCRs [6]; Conc 1 uM): -0.6%; % Antagonist Activity (168 GPCRs [6]; Conc 1 uM): 12.7%; % Agonist Activity (168 GPCRs [6]; Conc 10 uM): -0.5%; % Antagonist Activity (168 GPCRs [6]; Conc 10 uM): 6.9%; % Agonist Activity (168 GPCRs [7]; 1 uM): -1%; % Antagonist Activity (168 GPCRs [7]; 1 uM): 8.5%; % Agonist Activity (168 GPCRs [7]; 10 uM): 1.3%; % Antagonist Activity (168 GPCRs [7]; 10 uM): 6.3%; % Agonist Activity (168 GPCRs [8]; EDG5, 1 uM): -4.7%; % Antagonist Activity (168 GPCRs [8]; EDG5, 1 uM): -3.4%; % Agonist Activity (168 GPCRs [8]; EDG5, 10 uM): -3.7%; % Antagonist Activity (168 GPCRs [8]; EDG5, 10 uM): -6.3%
